What all share (test): cells
Test [1] deals with EB2. The test is classed as functional, cell-based, Homo sapiens. To be noted: Homo sapiens, EB2.
Description: SANGER: Inhibition of human EB2 cell growth in a cell viability assay.
Test [2] relates to NCI-H2171. The test is classed as functional, cell-based, Homo sapiens. To be noted: Homo sapiens, NCI-H2171.
Description: SANGER: Inhibition of human NCI-H2171 cell growth in a cell viability assay.
In test [3] the test system is PF-382. The test is classed as functional, cell-based, Homo sapiens. To be noted: Homo sapiens, PF-382.
Description: SANGER: Inhibition of human PF-382 cell growth in a cell viability assay.
For test [4], the system named is TE-441-T. The test is classed as functional, cell-based, Homo sapiens. To be noted: Homo sapiens, TE-441-T.
Description: SANGER: Inhibition of human TE-441-T cell growth in a cell viability assay.
The subject of test [5] is CP50-MEL-B. The test is classed as functional, cell-based, Homo sapiens. As to conditions: Homo sapiens, CP50-MEL-B.
Description: SANGER: Inhibition of human CP50-MEL-B cell growth in a cell viability assay.
Test [6] has as its system Calu-3. The test is classed as functional, cell-based, Homo sapiens. As to conditions: Homo sapiens, Calu-3.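 Note: growth inhibition of human Calu-3 cells, determined with a cell viability assay.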
Description: SANGER: Inhibition of human Calu-3 cell growth in a cell viability assay.
The subject of test [7] is DU-145. The test is classed as functional, cell-based, Homo sapiens. As to conditions: Homo sapiens, DU-145.
Description: SANGER: Inhibition of human DU-145 cell growth in a cell viability assay.
In test [8] the test system is HCC1569. The test is classed as functional, cell-based, Homo sapiens. As to conditions: Homo sapiens, HCC1569.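 Note: growth inhibition of human HCC1569 cells, read out with a cell viability assay.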
Description: SANGER: Inhibition of human HCC1569 cell growth in a cell viability assay.
For test [9], the system named is HOP-92. The test is classed as functional, cell-based, Homo sapiens. As to conditions: Homo sapiens, HOP-92.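 Note: cell viability readout, with IC50 reflecting inhibition of HOP-92 cell growth.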
Description: SANGER: Inhibition of human HOP-92 cell growth in a cell viability assay.
The test system of test [10] is HSC-3. The test is classed as functional, cell-based, Homo sapiens. As to conditions: Homo sapiens, HSC-3.
Description: SANGER: Inhibition of human HSC-3 cell growth in a cell viability assay.
Test [11] relates to HT1197. The test is classed as functional, cell-based, Homo sapiens, HT-1197. As to conditions: Homo sapiens, HT1197.
Description: SANGER: Inhibition of human HT-1197 cell growth in a cell viability assay.
Test [12] deals with HT-1376. The test is classed as functional, cell-based, Homo sapiens. To be noted: Homo sapiens, HT-1376.
Description: SANGER: Inhibition of human HT-1376 cell growth in a cell viability assay.
The subject of test [13] is HuCCT-1. The test is classed as functional, cell-based, Homo sapiens, HuCCT1. To be noted: Homo sapiens, HuCCT-1.
Description: SANGER: Inhibition of human HuCCT1 cell growth in a cell viability assay.
For test [14], the system named is HuP-T3. The test is classed as functional, cell-based, Homo sapiens. As to conditions: Homo sapiens, HuP-T3.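 Note: HuP-T3 cell growth inhibition, read out with a cell viability assay.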
Description: SANGER: Inhibition of human HuP-T3 cell growth in a cell viability assay.
Test [15] has as its system JEG-3. The test is classed as functional, cell-based, Homo sapiens. To be noted: Homo sapiens, JEG-3.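 Note: growth inhibition of human JEG-3 cells, read out with a cell viability assay.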
Description: SANGER: Inhibition of human JEG-3 cell growth in a cell viability assay.
Test [16] deals with KYSE-150 cell line. The test is classed as functional, cell-based, Homo sapiens. To be noted: Homo sapiens, KYSE-150.
Description: SANGER: Inhibition of human KYSE-150 cell growth in a cell viability assay.
For test [17], the system named is KYSE-510. The test is classed as functional, cell-based, Homo sapiens. To be noted: Homo sapiens, KYSE-510.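 Note: cell viability readout used to measure how strongly growth of the cell line is suppressed.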
Description: SANGER: Inhibition of human KYSE-510 cell growth in a cell viability assay.
For test [18], the system named is LCLC-97TM1. The test is classed as functional, cell-based, Homo sapiens. To be noted: Homo sapiens, LCLC-97TM1.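 Note: cell viability assay measuring growth inhibition of human LCLC-97TM1 cells.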
Description: SANGER: Inhibition of human LCLC-97TM1 cell growth in a cell viability assay.
In test [19] the test system is MDA-MB-361. The test is classed as functional, cell-based, Homo sapiens. As to conditions: Homo sapiens, MDA-MB-361.
Test [20] has as its system NCI-H1563. The test is classed as functional, cell-based, Homo sapiens. As to conditions: Homo sapiens, NCI-H1563.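 Note: growth inhibition of human NCI-H1563 cells, read out with a cell viability assay.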
Description: SANGER: Inhibition of human NCI-H1563 cell growth in a cell viability assay.
In test [21] the test system is NCI-H1755. The test is classed as functional, cell-based, Homo sapiens. As to conditions: Homo sapiens, NCI-H1755.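 Note: cell viability readout used to measure growth inhibition of NCI-H1755 cells.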
Description: SANGER: Inhibition of human NCI-H1755 cell growth in a cell viability assay.
The subject of test [22] is NCI-H2052. The test is classed as functional, cell-based, Homo sapiens. To be noted: Homo sapiens, NCI-H2052.
Description: SANGER: Inhibition of human NCI-H2052 cell growth in a cell viability assay.
The test system of test [23] is NCI-H727. The test is classed as functional, cell-based, Homo sapiens. As to conditions: Homo sapiens, NCI-H727.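 Note: growth inhibition of human NCI-H727 cells, read out with a cell viability assay.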
Description: SANGER: Inhibition of human NCI-H727 cell growth in a cell viability assay.
For test [24], the system named is NCI-H810. The test is classed as functional, cell-based, Homo sapiens. As to conditions: Homo sapiens, NCI-H810.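 Note: IC50 reflects inhibition of cancer cell line growth, read out with a cell viability assay.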
Description: SANGER: Inhibition of human NCI-H810 cell growth in a cell viability assay.
For test [25], the system named is OVCAR-5. The test is classed as functional, cell-based, Homo sapiens. To be noted: Homo sapiens, OVCAR-5.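 Note: growth inhibition of human OVCAR-5 cells, read out with a cell viability assay.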
Description: SANGER: Inhibition of human OVCAR-5 cell growth in a cell viability assay.
Test [26] has as its system P12-Ichikawa. The test is classed as functional, cell-based, Homo sapiens. To be noted: Homo sapiens, P12-Ichikawa.
For test [27], the system named is Panc1005. The test is classed as functional, cell-based, Homo sapiens. To be noted: Homo sapiens, Panc1005.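 Note: growth inhibition of human PANC-10-05 cells, measured by a cell viability assay.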
Description: SANGER: Inhibition of human PANC-10-05 cell growth in a cell viability assay.
Test [28] has as its system PC-14. The test is classed as functional, cell-based, Homo sapiens. To be noted: Homo sapiens, PC-14.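 Note: cell viability assay measuring inhibition of PC-14 cell growth.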
Description: SANGER: Inhibition of human PC-14 cell growth in a cell viability assay.
Test [29] has as its system RCM-1. The test is classed as functional, cell-based, Homo sapiens. As to conditions: Homo sapiens, RCM-1.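 Note: growth inhibition of the RCM-1 line, determined with a cell viability readout.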
Description: SANGER: Inhibition of human RCM-1 cell growth in a cell viability assay.
For test [30], the system named is SCC-9. The test is classed as functional, cell-based, Homo sapiens. As to conditions: Homo sapiens, SCC-9.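 Note: Read-out is a cell viability assay, with values giving inhibition of cell growth.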
Description: SANGER: Inhibition of human SCC-9 cell growth in a cell viability assay.
Test [31] deals with SF-295. The test is classed as functional, cell-based, Homo sapiens. To be noted: Homo sapiens, SF-295.
Description: SANGER: Inhibition of human SF295 cell growth in a cell viability assay.
The test system of test [32] is SK-HEP1. The test is classed as functional, cell-based, Homo sapiens, SK-HEP-1. To be noted: Homo sapiens, SK-HEP1.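 Note: cell viability readout used to quantify reduction in proliferation of human SK-HEP-1 cells.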
Description: SANGER: Inhibition of human SK-HEP-1 cell growth in a cell viability assay.
Test [33] relates to SK-MEL-24. The test is classed as functional, cell-based, Homo sapiens. To be noted: Homo sapiens, SK-MEL-24.
Description: SANGER: Inhibition of human SK-MEL-24 cell growth in a cell viability assay.
Test [34] concerns SK-MEL3. The test is classed as functional, cell-based, Homo sapiens, SK-MEL-3. As to conditions: Homo sapiens, SK-MEL3.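 Note: growth inhibition of human SK-MEL-3 cells, read out with a cell viability assay.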
Description: SANGER: Inhibition of human SK-MEL-3 cell growth in a cell viability assay.
The subject of test [35] is SN12C. The test is classed as functional, cell-based, Homo sapiens. As to conditions: Homo sapiens, SN12C.
Description: SANGER: Inhibition of human SN12C cell growth in a cell viability assay.
Test [36] concerns A2058. The test is classed as functional, cell-based, Homo sapiens. As to conditions: Homo sapiens, A2058.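 Note: reduction of A2058 cell growth, read out with a viability assay.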
Description: SANGER: Inhibition of human A2058 cell growth in a cell viability assay.
Test [37] relates to ACHN. The test is classed as functional, cell-based, Homo sapiens. To be noted: Homo sapiens, ACHN.
Description: SANGER: Inhibition of human ACHN cell growth in a cell viability assay.
Test [38] concerns AN3-CA. The test is classed as functional, cell-based, Homo sapiens. To be noted: Homo sapiens, AN3-CA.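 Note: growth inhibition of human AN3-CA cells measured by a cell viability assay.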
Description: SANGER: Inhibition of human AN3-CA cell growth in a cell viability assay.
The test system of test [39] is ASPC1. The test is classed as functional, cell-based, Homo sapiens. To be noted: Homo sapiens, ASPC1.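 Note: growth inhibition of AsPC-1 cells, read out with a cell viability assay.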
Description: SANGER: Inhibition of human AsPC-1 cell growth in a cell viability assay.
The test system of test [40] is BFTC-905. The test is classed as functional, cell-based, Homo sapiens. To be noted: Homo sapiens, BFTC-905.
Description: SANGER: Inhibition of human BFTC-905 cell growth in a cell viability assay.
Test [41] concerns BFTC-909. The test is classed as functional, cell-based, Homo sapiens. To be noted: Homo sapiens, BFTC-909.
Description: SANGER: Inhibition of human BFTC-909 cell growth in a cell viability assay.
Test [42] concerns C-33-A. The test is classed as functional, cell-based, Homo sapiens. As to conditions: Homo sapiens, C-33-A.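 Note: cell viability assay measuring growth inhibition of C-33-A cells.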
Description: SANGER: Inhibition of human C-33-A cell growth in a cell viability assay.
The test system of test [43] is CAL-27. The test is classed as functional, cell-based, Homo sapiens. To be noted: Homo sapiens, CAL-27.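 Note: Viability-based readout, IC50 reflecting inhibition of CAL-27 cell growth.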
Description: SANGER: Inhibition of human CAL-27 cell growth in a cell viability assay.
The test system of test [44] is CAL-85-1. The test is classed as functional, cell-based, Homo sapiens. To be noted: Homo sapiens, CAL-85-1.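 Note: growth inhibition of human CAL-85-1 cells, read out with a cell viability assay.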
Description: SANGER: Inhibition of human CAL-85-1 cell growth in a cell viability assay.

This passage reports IC50 results from ChEMBL document CHEMBL1201861, “Genomics of Drug Sensitity in Cancer screening data, Wellcome Trust Sanger Institute”.

As usually defined, the IC50 is the concentration at which inhibition is half-maximal. Read a high IC50 as weaker potency in that assay.

For the molecule `COc1cc(N2CCN(C)CC2)ccc1Nc1ncc2c(n1)N(C)c1ccccc1C(=O)N2C`, the IC50 in [1] is 2820 nM; in test [2], over 8000 nM; in test [3], 4940 nM; in test [4], over 8000 nM.
Consider `COc1cc(-c2nn([C@H]3CC[C@H](N4CCN(C(C)=O)CC4)CC3)c3ncnc(N)c23)ccc1NC(=O)c1cc2ccccc2n1C`, for which the concentration for half-maximal inhibition (IC50) in [1], in test [2], in [3] and in [4] was over 5120 nM in each case.
On to `Cc1cc([N+](=O)[O-])ccc1NS(=O)(=O)c1cc(Cl)ccc1Cl`, for which the concentration for half-maximal inhibition (IC50) in [5] is 1030 nM; in test [6] it was 2870 nM; in test [7] it was 4690 nM; in test [1], over 32000 nM; in [8], 3480 nM; in test [9], 2810 nM. For the same molecule, the IC50 worked out at 2890 nM in [10]; 11200 nM in [11]; 3810 nM in test [12]; 7320 nM in test [13]; 11200 nM in test [14]; 4900 nM in test [15]. In addition, the IC50 in test [16] was 5060 nM; in [17] it was 4840 nM; in test [18], 3180 nM; in test [19] it was 3660 nM; in test [20] it was 9470 nM; in test [21] it was 15800 nM. For the same molecule, the IC50 in test [22] is 18200 nM; in test [2], over 32000 nM; in test [23], 2030 nM; in [24] it was 1250 nM; in [25] it was 23600 nM; in test [26], 13800 nM. Further, the IC50 in test [27] is 5370 nM; in [28] it was 20000 nM; in test [3], 7730 nM; in [29] it was 8760 nM; in [30], over 32000 nM; in [31] it was 2340 nM. The half-inhibitory concentration (IC50) in [32] amounted to 2880 nM; in test [33], 6270 nM; in [34] it was 4680 nM; in [35] it was 3640 nM; in [36] it was 2030 nM; in test [37] it was 4600 nM. Also, the IC50 in test [38] was found to be 1080 nM; in test [39], 22300 nM; in [40] it was 3650 nM; in test [41], 3610 nM; in test [42], 2000 nM; in test [43], 3160 nM. Moreover, the IC50 in test [44] was 3610 nM; in test [4], 7310 nM.
As for `OCCCNc1cc(-c2ccnc(Nc3cccc(Cl)c3)n2)ccn1`, the IC50 is over 256 nM in [1], over 256 nM in [2], 104 nM in test [3] and 38.4 nM in [4].
On to `N#Cc1c(O)c2c(-c3ccc(-c4ccccc4O)cc3)csc2[nH]c1=O`, for which the IC50 in test [5] is over 1020 nM; in [6] it was over 1020 nM; in test [7], over 1020 nM; in test [1], 142 nM; in [8] it was over 1020 nM; in [9], over 1020 nM. Besides, the IC50 in test [10], in test [11], in [12], in test [13], in test [14] and in [15] was over 1020 nM throughout. Besides, the IC50 was over 1020 nM in test [16]; over 1020 nM in test [17]; over 1020 nM in test [18]; 860 nM in test [19]; over 1020 nM in [20]; over 1020 nM in [21]. Further, the IC50 in [22] is over 1020 nM; in [2] it was 622 nM; in test [23] it was over 1020 nM; in test [24], over 1020 nM; in test [25], over 1020 nM; in test [26], 489 nM. The 50% inhibitory concentration (IC50) in test [27] was over 1020 nM; in [28], over 1020 nM; in [3], 85.9 nM; in test [29], over 1020 nM; in test [30], over 1020 nM; in test [31], over 1020 nM. Further, the IC50 in test [32], in test [33], in [34], in [35], in test [36] and in test [37] was over 1020 nM each time. The IC50 in test [38], in [39], in test [40], in test [41], in test [42] and in test [43] was over 1020 nM throughout. Besides, the IC50 in test [44] and in test [4] was over 1020 nM in each case.
On to `Cc1ccc(-c2c(C(=O)CCl)n(CCCO)c3ncnc(N)c23)cc1`, for which the IC50 in [1] was over 4000 nM; in test [2], over 4000 nM; in test [3], 1220 nM; in test [4], over 4000 nM.
For `C#Cc1cccc(Nc2ncnc3cc(OCCOC)c(OCCOC)cc23)c1` [ERLOTINIB], the half-inhibitory concentration (IC50) in test [1], in [2], in test [3] and in test [4] was over 2000 nM throughout.
`COc1cc2ncn(-c3cc(OCc4ccccc4S(C)(=O)=O)c(C#N)s3)c2cc1OC` [GSK-319347A]: the 50% inhibitory concentration (IC50) in [1], in test [2], in [3] and in [4] was over 5000 nM in each case.
In the case of `COc1cc2ncn(-c3cc(OCc4ccccc4C(F)(F)F)c(C(N)=O)s3)c2cc1OC` [GW843682X], the half-inhibitory concentration (IC50) in test [1] is over 256 nM; in [2] it was over 256 nM; in [3], 33.4 nM; in test [4], over 256 nM.
For the molecule `CC(=O)O[C@H]1C(=O)[C@@]2(C)[C@H]([C@H](OC(=O)c3ccccc3)[C@]3(O)C[C@H](OC(=O)[C@H](O)[C@@H](NC(=O)c4ccccc4)c4ccccc4)C(C)=C1C3(C)C)[C@]1(OC(C)=O)CO[C@@H]1C[C@@H]2O` [PACLITAXEL], the concentration for half-maximal inhibition (IC50) is over 102 nM in [1], over 102 nM in test [2], 23.8 nM in test [3] and over 102 nM in test [4].
In the case of `N[C@@H](CSC(c1ccccc1)(c1ccccc1)c1ccccc1)C(=O)O` [S-TRITYL-L-CYSTEINE], the concentration for half-maximal inhibition (IC50) in [1] is over 5120 nM; in test [2], over 5120 nM; in test [3], 1670 nM; in test [4], 4790 nM.
Take `CC[C@H](CO)Nc1nc(NCc2ccccc2)c2ncn(C(C)C)c2n1` [SELICICLIB]: the IC50 in test [1], in test [2], in [3] and in test [4] was over 16000 nM throughout.
With `CCN(CC)CCNC(=O)c1c(C)[nH]c(/C=C2\C(=O)Nc3ccc(F)cc32)c1C` [SUNITINIB], the IC50 in test [1] was over 8000 nM; in [2], over 8000 nM; in test [3], 3450 nM; in [4], over 8000 nM.
